Measured values: US9120762B2, “Salts of bicyclo-substituted pyrazolon azo derivatives, preparation method and use thereof” (Jiangsu Hengrui Medicine Co., Ltd., priority 2009, dated 2015)
Read-outs that look alike come from different tables or passages of the source.

Experiments:
[1] = Hygroscopicity assay, standing 48 hours at 25° C., humidity 79%; assay type: physicochemical; details: for Percentage of weight gain / hygroscopicity: 48 hours, 25° C., humidity 79%
Protocol: The hygroscopicity test of the compounds of the present disclosure after standing for 48 hours
1. The arid glass weighing bottle with a tap (external diameter is 50 mm, the height is 15 mm) was placed at 25° C.±1° C. suitably in a thermostatic drier (saturated ammonium sulfate solution was laid in the lower part, humidity was 79%) the day before the assay, precise weight was measured as (m1);
2. The above weighing bottle was covered with the compounds of the invention (about 1 g), and the thickness of the compounds were generally 1 mm, precise weight was measured as (m2);
3. The mouth of the weighing bottle was kept open and placed with the tap in the above conditions with constant temperature and humidity for 48 hours;
4. Put the tap back on the bottle, precise weight was measured as (m3)
The degree of hygroscopicity was defined as follows: […]
Deliquesce: turning into liquid by absorbing enough moisture.
High hygroscopicity: the percentage of hygroscopicity weight gain is not less than 15%.
Hygroscopicity: the percentage of hygroscopicity weight gain is less than 15%, but not less than 2%.
Sparing hygroscopicity: the percentage of hygroscopicity weight gain is less than 2%, but not less than 0.2%.
No hygroscopicity or almost no hygroscopicity: the percentage of hygroscopicity weight gain is less than 0.2%.

[2] = Pharmacokinetics assay in Beagle dogs; assay type: in vivo; details: for Vd/F / AUC / CL/F / half-life / MRT / Cmax / Tmax: male, beagle, dog, plasma, po; for Vd/F: read-out: Apparent Distribution Volume Vz/F; for AUC: read-out: Area Under Curve AUC; for CL/F: read-out: Clearance CL/F (converted); for half-life: read-out: Half-Life t1/2 (converted); for MRT: read-out: Mean Residence Time MRT; for Cmax: read-out: Plasma Conc. Cmax; for Tmax: read-out: Time to peak Tmax
Protocol: The pharmacokinetic behavior of the compounds of the present disclosure was studied and evaluated in Beagle dogs.
12 Healthy adult Beagles dogs, male, were purchased from Suzhou Xishan Drug Research and Development Colo., LTD. License number: SCXK (Suzhou) 2007-0005.
The test compound was diluted with 0.5% sodium carboxymethyl cellulose to 2.5 mg/mL (calculated as the free acid form) of suspension before use.
12 Healthy adult Beagles dogs, male, were divided into 4 groups. After an overnight fast, the dogs were administered intragastrically at a dose of 5.0 mg/kg (calculated as the free acid form), at a volume of 2 mL/kg.
Blood samples (1.2 mL) were taken from vein of forelegs at pre administration and at 0.25, 0.5, 1.0, 1.5, 2.0, 3.0, 5.0, 6.0, 8.0, 12.0, 14.0, 24.0 and 48.0 hours post administration, which were stored in heparinized tubes and centrifuged for 10 minutes at 3,500 rpm. The plasma samples were stored at −20° C. until analysis. The Beagles dogs were fed 2 hours after administration.
50 μL of Beagles dog plasma, obtained at various time points after administration, 20 μL of internal standard solution and 150 μL of methanol was added to result in protein precipitation. Then the mixture was mixed for 1 minute using a vortexer and centrifuged for 5 minutes at 11,000 rpm. 50 μL of the supernatant was analyzed by HPLC-UV.
The compartmental model of pharmacokinetics was fitted for the test compounds and the major pharmacokinetic parameters were calculated in which Cmax and tmax were the actually measured values.

[3] = Solubility assay in water, 0.1% hydrochloric acid and methanol; assay type: physicochemical; details: read-out: solubility
In short: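 Solubility was classed by the solvent volume needed to dissolve 1 g (mL) of solute, from "very soluble" (<1 mL) to "practically insoluble" (not fully dissolved in 10000 mL).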

[4] = 5 mg/kg, intragastric, 5 mg/kg (as free acid)
[5] = 0.1% hydrochloric acid, simulated gastric fluid, 0.1% hydrochloric acid
[6] = intragastric, 5 mg/kg (as free acid), 5 mg/kg

CC1=NN(c2ccc3c(c2)CCCC3)C(=O)/C1=N\Nc1cccc(-c2ccc(C(=O)O)o2)c1O [Example 12, (Z)-5-(2-hydroxy-3-{N′-[3-methyl-5-oxo-1-(5,6,7,8-tetrahydro-naphthalen-2-yl)-1,5-dihydro-pyrazol-4-ylidene]-hydrazino}-phenyl)-furan-2-carboxylic acid bis-(trometamol)]
Percentage of weight gain [1]: 2.71%
hygroscopicity [1]: Hygroscopicity (the percentage of hygroscopicity weight gain is less than 15%, but not less than 2%)
Vd/F [2, 4]: 4.86 L/kg
AUC [2, 4]: 11000 ng·h/mL
CL/F [2, 4]: 11 mL/min/kg
half-life [2, 4]: 6.86 h
MRT [2, 4]: 11.6 h
Cmax [2, 4]: 811 ng/mL
Tmax [2, 4]: 0.5 h

CC1=NN(c2ccc3c(c2)CCCC3)C(=O)/C1=N\Nc1cccc(-c2ccc(C(=O)O)o2)c1O.NCCO.NCCO [Example 7, (Z)-5-(2-hydroxy-3-{N′-[3-methyl-5-oxo-1-(5,6,7,8-tetrahydro-naphthalen-2-yl)-1,5-dihydro-pyrazol-4-ylidene]-hydrazino}-phenyl)-furan-2-carboxylic acid bis-(ethanolamine)]
Percentage of weight gain [1]: 1.2%
hygroscopicity [1]: Sparing hygroscopicity (the percentage of hygroscopicity weight gain is less than 2%, but not less than 0.2%)
hygroscopicity, in words ([1]; comparing to the other salts): less hydroscopic
solubility [3, 5]: 29 µg/mL
solubility ([3]; methanol, organic solvent or mixture, methanol): 22400 µg/mL
solubility ([3]; water): 3960 µg/mL
pharmacokinetics, in words ([2]; among the four salts): obviously superior in pharmacokinetics
Vd/F [2, 4]: 5.72 L/kg
AUC [2, 4]: 12200 ng·h/mL
CL/F [2, 4]: 8.3 mL/min/kg
half-life [2, 4]: 8.24 h
MRT [2, 4]: 13.3 h
Cmax [2, 4]: 985 ng/mL
Tmax [2, 4]: 1.2 h

CC1=NN(c2ccc3c(c2)CCCC3)C(=O)/C1=N\Nc1cccc(-c2ccc(C(=O)O)o2)c1O [Example 8, (Z)-5-(2-hydroxy-3-{N′-[3-methyl-5-oxo-1-(5,6,7,8-tetrahydro-naphthalen-2-yl)-1,5-dihydro-pyrazol-4-ylidene]-hydrazino}-phenyl)-furan-2-carboxylic acid bis-(choline)]
Percentage of weight gain [1]: 13.9%
hygroscopicity [1]: Hygroscopicity (the percentage of hygroscopicity weight gain is less than 15%, but not less than 2%)
solubility [3, 5]: < 1 µg/mL
Area Under Curve AUC [2, 6]: 7910 ng·h/mL
Clearance CL/F [2, 6]: 14.6 mL/min/kg
Half-Life t1/2 [2, 6]: 7.67 h
Plasma Conc. Cmax [2, 6]: 600 ng/mL
Time to peak Tmax [2, 6]: 0.5 h
